Data on two molecules can be found in patent US9581594B2, “Porphyrin—modified antimicrobial peptides for application as indicators of microbial targets” (priority 2013, dated 2017).

One data set deals with B. globigii. The data set is described as follows: Microtiter plate absorbance/fluorescence analysis of interaction with bacterial cells (B. globigii). Type of data set: cell-based. How it is done: (§1) C1TPP and C1TPP-modified antimicrobial peptides were evaluated in a microtiter plate format using a Tecan XSafire monochromator-based microplate reader. Absorbance measurements were collected between 380 and 800 nm at 2 nm resolution. Fluorescence measurements were collected at 2 nm resolution for emission between 550 and 800 nm with excitation at 415 nm and for excitation between 385 and 619 nm with emission at 730 nm.
(§2) The microtiter plate format described above was utilized for analysis of interactions between the porphyrin-AMP constructs and bacterial cells, specifically, E. coli and B. globigii. The bacterial cells utilized were collected at mid-log phase growth and rinsed with water to remove growth media. They were then resuspended in water at approximately 3.5×10^7 cfu/mL. Analyses looked at changes in fluorescence and absorbance for fixed cell concentrations with varying tracer concentrations as well as for fixed tracer concentrations with varying cell concentrations. FIGS. 3A and 3B present data for the interaction between C1TPP and the two cell types, with absorbance (A) and fluorescence (B) spectra for C1TPP in water (black, 10% DMSO) and in the presence of E. coli (dashes) and B. globigii (dots) at 1.8×10^6 cfu/mL.

The format of data set [1] is physicochemical. The settings on record: for solubility with addition of 10% DMSO: 10% dimethylsulfoxide final concentration; for solubility in water: water / aqueous solution. An excerpt:
It is still insufficient to resolve spectrophotometric characteristics with […] as evidenced by the low absorbance intensity and indistinct bands in both absorbance and fluorescence characteristics (FIGS. 1A and 1B). […] In FIGS. 2A-2D, the more traditional Soret and Q-bands in the absorbance spectra are evident, and the expected two peak fluorescence emission spectra are observed. […] Each of the constructs has unique peak positions as well as varying extinction coefficients for the Soret and Q-bands. Fluorescence emission is also uniquely varying amongst the tracers. These factors tend to indicate the formation of unique complexes providing the potential desired for these materials.

The subject of the next data set is E. coli. The data set is described as follows: Microtiter plate absorbance/fluorescence analysis of interaction with bacterial cells (E. coli). Type of data set: cell-based. The method, then: as §1, §2

Bridge positions count the residues as written; N and C are the ends. Ends that are not written are not given here.

As for “C1-Bac: C1TPP covalently attached to Bactenecin (RLCRIVVIRVCR; cyclized via disulfide bridge) (disulfide 3-11 (inferred); also: C1TPP covalently attached, site not given here)”, the “changes in fluorescence on interaction with cells” value in the data set with B. globigii (B. globigii cells) and with E. coli (E. coli cells) was “noted for only the highest concentrations of tracer used” throughout. Besides, the “peak/trough pair in the Soret region of the absorbance difference spectrum” value with B. globigii (in the presence of B. globigii cells) and in the data set with E. coli (in the presence of E. coli cells) was 476/432 each time. Also, the “solubility with addition of 10% DMSO” value in data set [1] is listed as “sufficient to maintain the solubility”. Further, in data set [1], the solubility in water result is given as “precipitated from aqueous solution”.

Consider `O=C(O)c1ccc(-c2c3nc(c(-c4ccccc4)c4ccc([nH]4)c(-c4ccccc4)c4nc(c(-c5ccccc5)c5ccc2[nH]5)C=C4)C=C3)cc1` [C1TPP, 5-mono(4-carboxyphenyl)-10,15,20-triphenyl porphine], for which the “changes in fluorescence on interaction with cells” value in the data set on B. globigii (B. globigii cells) and with E. coli (E. coli cells) was “overall quench” in each case. Besides, the “changes in absorbance or fluorescence characteristics on interaction with cells” value in the data set with B. globigii (B. globigii cells, range of concentrations evaluated) is recorded as “did not produce concentration dependent changes”; with E. coli (E. coli cells, range of concentrations evaluated) it was “did not produce concentration dependent changes”. In data set [1], the “solubility with addition of 10% DMSO” value was “increased somewhat”. Besides, the solubility in water entry in data set [1] was “minimally soluble”.
